What was measured:
[1] = tested on: LPS-induced TNF-α production; test: Inhibition of LPS-induced TNF-α production in PBMac (ELISA); format: cell-based, Human; conditions: for inhibition of LPS-induced TNF-α protein production: PBMac pre-incubated with compound 18 h, then 10 ng/ml LPS for 24 h, ELISA of supernatant, mean±S.D., compound concentration not given (25 and 50 ug/ml tested)
Protocol: FIGS. 2 (A-C) show the inhibition of LPS-induced TNF-α production by Compound A1, Compound A2 and Cim A. PBMac cells are incubated with (A) 25 and 50 ug/ml A1 or (B) 25 and 50 ug/ml A2 or (C) 25 and 50 ug/ml Cim A for 18 h prior to the addition of 10 ng/ml LPS for another 24 h. The culture supernatants are collected and assayed for TNF-α production by enzyme-linked immunosorbent assay (ELISA). The results shown are the mean values±standard derivation (S.D.) of at least three independent experiments, with cells obtained from different donors. * P<0.05, ** P<0.01 compared with the control.
Endotoxin (lipopolysachamide, LPS) from E. coli was purchased from Sigma and used as an inducer of TNF-α expression. Dexamethasone (Sigma) was used as a control drug to inhibit the LPS induction of TNF-α.
(§1) Human peripheral blood monocytic cells (PBMC) were isolated from the buffy coat of healthy donor blood supplied by Hong Kong Red Cross by Ficoll-Paque (Amersham Pharmacia Biotech, Piscataway, N.J.) density gradient centrifugation as described in our previous reports. In brief, the buffy coat was spun at 3000 rotations per min (rpm) for 15 min to separate the blood cells and the plasma. The heat inactivated serum was filtered for future use.
(§2) The cell layer was diluted with phosphate buffered saline (PBS) in a ratio of 1:1. The diluted cells were overlaid on Ficoll-Paque slowly and centrifuged at 2300 rpm for 20 min for separation of mononuclear cells from erythrocytes. The mononuclear cell layer was removed and washed with RPMI 1640 medium until the supernatant was clear.
(§3) The cells were finally resuspended in RPMI 1640 medium supplemented with 5% autologous serum and cultured for 1 hr. The non-adherent cells were removed afterwards and the remaining adherent cells were further incubated for another 24 hr at 37° C. in 5% carbon dioxide (CO2).
(§4) The adherent monocytic cells were detached and seeded onto tissue culture plates and incubated for another 7-14 days in order to differentiate the primary blood monocytic cells to primary blood macrophages (PBMac).
Culture supernatants of the LPS-treated PBMac, with or without pretreatment of Cim A, Compound A1 or Compound A2, were collected at different time intervals and stored at −70° C. The levels of the secreted TNF-α were measured by ELISA kits specific for the cytokine (R&D system, Minneapolis, Minn.).

PBMac = test: MTT cytotoxicity assay on PBMac; format: cell-based, Human; conditions: 25-75 ug/ml, time course of 48 h
Protocol: Incubation of PBMac cells with the compounds at various concentrations produces no significant difference in the metabolic activities of the cells, when compared to control. Cytotoxic effects of Compounds A1, A2 and Cim A (25-75 ug/ml) on PBMac are determined by MTT (3-[4,5-dimethylthiazol-2-yl]-2,5-di-phenyltetrazolim bromide) assays over a time course of 48 h.
as §1, §2, §3, §4

Row | SMILES | inhibition of LPS-induced TNF-α protein production [1] | cytotoxic effects (MTT, metabolic activity of cells vs control) (PBMac) | activity in inhibiting LPS-induced TNF-α production, higher than that of Cim A ([1]; compound at 50 μg/ml, relative to Cim A)
1 | COc1ccc(/C=C/C(=O)OCC(=O)Cc2ccc(O)c(O)c2)cc1O [Cim A, Cimiracemate A, reference compound] | 50±19% | almost no cytotoxic effects | –
2 | O=C(COC(=O)/C=C/c1ccc(O)c(O)c1)Cc1cccc(O)c1 [Compound A1] | 26±15% | almost no cytotoxic effects | –
3 | COc1ccc(/C=C/C(=O)OCC(=O)Cc2ccc(O)c(O)c2)cc1 [Compound A2] | 67±10% | almost no cytotoxic effects | 34%

— patent US9216942B2, “Compounds and uses thereof for treating inflammation and modulating immune responses” (PURAPHARM COMPANY LIMITED, priority 2012, dated 2015)
